Test results taken from patent US12252524B2, “GIP/GLP1 co-agonist compounds” (Eli Lilly and Company, priority 2018, dated 2025).
Numbered stars: 1 amine (or outer) side, 2 acyl side, 3 side chain; on linkers, the order of the positions; unused ones are H or OH. Square brackets hold non-standard residues; d marks the D form. Side chains are listed from the residue outwards. Peptide text beside a SMILES is read from it. * marks the point of attachment. C20 diacid = O=C(O)CCCCCCCCCCCCCCCCCCC(=O)*; γGlu = O=C(O)[C@H](CCC(=O)[*:2])N[*:1]; αMeF = C[C@](N)(Cc1ccccc1)C(=O)O; αMeL = CC(C)C[C@](C)(N)C(=O)O; AEEA = NCCOCCOCC(=O)O; Aib = CC(C)(N)C(=O)O

Tests used:
[1] = target: human GLP-1 receptor (GLP-1R) (Homo sapiens, UniProt P43220); assay: cAMP pharmacological functional assay in presence of casein, hGLP-1R; format: cell-based; conditions: HEK293 cells expressing hGLP-1R, 0.1% Casein, geometric mean; read-out: hGLP1R cAMP Rel EC50 nM (SEM, n)
Sequence of human GLP-1 receptor (GLP-1R) (P43220 24-463): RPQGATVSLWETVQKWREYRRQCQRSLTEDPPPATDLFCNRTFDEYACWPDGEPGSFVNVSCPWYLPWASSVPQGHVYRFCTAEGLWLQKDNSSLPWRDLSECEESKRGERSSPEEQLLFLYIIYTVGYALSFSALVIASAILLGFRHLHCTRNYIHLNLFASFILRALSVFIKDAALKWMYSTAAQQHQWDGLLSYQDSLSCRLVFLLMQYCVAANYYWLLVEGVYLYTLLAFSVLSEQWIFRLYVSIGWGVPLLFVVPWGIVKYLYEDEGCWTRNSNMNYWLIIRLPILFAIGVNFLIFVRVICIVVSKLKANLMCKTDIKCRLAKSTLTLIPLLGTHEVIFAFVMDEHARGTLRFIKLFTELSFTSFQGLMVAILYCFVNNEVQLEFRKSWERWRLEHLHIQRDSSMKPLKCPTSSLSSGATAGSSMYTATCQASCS

[2] = target: T1, gastric inhibitory peptide receptor (GIPR) (Homo sapiens, UniProt P48546); assay: cAMP pharmacological functional assay in presence of casein, hGIPR; format: cell-based; conditions: HEK293 cells expressing hGIPR, 0.1% Casein, geometric mean; read-out: hGIPR cAMP Rel EC50 nM (SEM, n)
T1 sequence (P48546 22-466): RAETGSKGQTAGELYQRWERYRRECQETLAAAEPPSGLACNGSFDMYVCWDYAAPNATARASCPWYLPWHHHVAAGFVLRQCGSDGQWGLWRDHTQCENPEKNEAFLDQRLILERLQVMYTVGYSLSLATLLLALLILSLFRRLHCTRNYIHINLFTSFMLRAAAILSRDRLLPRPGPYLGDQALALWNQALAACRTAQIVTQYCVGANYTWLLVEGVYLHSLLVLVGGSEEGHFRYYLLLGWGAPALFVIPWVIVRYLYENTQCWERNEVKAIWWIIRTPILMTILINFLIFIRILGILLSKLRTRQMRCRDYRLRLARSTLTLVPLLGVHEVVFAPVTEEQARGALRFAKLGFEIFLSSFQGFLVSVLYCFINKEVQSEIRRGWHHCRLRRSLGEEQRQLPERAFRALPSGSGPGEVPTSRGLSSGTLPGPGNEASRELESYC

EC50 [1] [nM] | EC50 [2] [nM] | Structure (SMILES)
> 2000 | 135 | CC[C@H](C)[C@H](NC(=O)[C@H](CCCCN)NC(=O)[C@H](CC(C)C)NC(=O)[C@H](CC(C)C)NC(=O)[C@@H](NC(=O)[C@H](CO)NC(=O)[C@H](Cc1ccc(O)cc1)NC(=O)[C@H](CC(=O)O)NC(=O)[C@H](CO)NC(=O)[C@@H](NC(=O)[C@H](Cc1ccccc1)NC(=O)[C@@H](NC(=O)CNC(=O)[C@H](CCC(=O)O)NC(=O)C(C)(C)NC(=O)[C@@H](N)Cc1ccc(O)cc1)[C@@H](C)O)[C@@H](C)O)[C@@H](C)CC)C(=O)N[C@@H](C)C(=O)N[C@@H](CCC(N)=O)C(=O)NC(C)(C)C(=O)N[C@@H](C)C(=O)N[C@@H](Cc1ccccc1)C(=O)N[C@H](C(=O)N[C@@H](CCC(=O)O)C(=O)N[C@@H](Cc1ccc(O)cc1)C(=O)N[C@@H](CC(C)C)C(=O)N[C@H](C(=O)N[C@@H](CCC(=O)O)C(=O)NCC(=O)NCC(=O)N1CCC[C@H]1C(=O)N[C@@H](CO)C(=O)N[C@@H](CO)C(=O)NCC(=O)N[C@@H](C)C(=O)N1CCC[C@H]1C(=O)N1CCC[C@H]1C(=O)N[C@@H](CCCCNC(=O)COCCOCCNC(=O)COCCOCCNC(=O)CC[C@H](NC(=O)CCCCCCCCCCCCCCCCCCC(=O)O)C(=O)O)C(=O)N[C@@H](CO)C(N)=O)[C@@H](C)CC)[C@@H](C)CC [Example 77] (H-Y[Aib]EGTFTSDYSILLKIAQ[Aib]AFIEYLIEGGPSSGAPPK([AEEA-AEEA-γGlu-C20 diacid])S-NH2)
0.257 | 0.338 | CC[C@H](C)[C@H](NC(=O)[C@H](CCCCN)NC(=O)[C@H](CC(=O)O)NC(=O)[C@H](CC(C)C)NC(=O)[C@H](CC(C)C)NC(=O)[C@@H](NC(=O)[C@H](CO)NC(=O)[C@H](CCCCNC(=O)COCCOCCNC(=O)COCCOCCNC(=O)CC[C@H](NC(=O)CCCCCCCCCCCCCCCCCCC(=O)O)C(=O)O)NC(=O)[C@H](CC(=O)O)NC(=O)[C@H](CO)NC(=O)[C@@H](NC(=O)[C@](C)(Cc1ccccc1)NC(=O)[C@@H](NC(=O)CNC(=O)[C@H](CCC(=O)O)NC(=O)C(C)(C)NC(=O)[C@@H](N)Cc1ccc(O)cc1)[C@@H](C)O)[C@@H](C)O)[C@@H](C)CC)C(=O)N[C@@H](C)C(=O)N[C@@H](CCC(N)=O)C(=O)NC(C)(C)C(=O)N[C@@H](C)C(=O)N[C@@H](Cc1ccccc1)C(=O)N[C@H](C(=O)N[C@@H](CCC(=O)O)C(=O)N[C@@H](Cc1ccc(O)cc1)C(=O)N[C@@H](CC(C)C)C(=O)N[C@H](C(=O)N[C@@H](CCC(=O)O)C(=O)NCC(=O)NCC(N)=O)[C@@H](C)CC)[C@@H](C)CC [Example 92] (H-Y[Aib]EGT[αMeF]TSDK([AEEA-AEEA-γGlu-C20 diacid])SILLDKIAQ[Aib]AFIEYLIEGG-NH2)
0.338 | 0.425 | CC[C@H](C)[C@H](NC(=O)[C@H](CCCCN)NC(=O)[C@H](CC(=O)O)NC(=O)[C@H](CC(C)C)NC(=O)[C@H](CC(C)C)NC(=O)[C@@H](NC(=O)[C@H](CO)NC(=O)[C@H](Cc1ccc(O)cc1)NC(=O)[C@H](CC(=O)O)NC(=O)[C@H](CO)NC(=O)[C@@H](NC(=O)[C@](C)(Cc1ccccc1)NC(=O)[C@@H](NC(=O)CNC(=O)[C@H](CCC(=O)O)NC(=O)C(C)(C)NC(=O)[C@@H](N)Cc1ccc(O)cc1)[C@@H](C)O)[C@@H](C)O)[C@@H](C)CC)C(=O)N[C@@H](C)C(=O)N[C@@H](CCC(N)=O)C(=O)NC(C)(C)C(=O)N[C@@H](CCCCNC(=O)COCCOCCNC(=O)COCCOCCNC(=O)CC[C@H](NC(=O)CCCCCCCCCCCCCCCCCCC(=O)O)C(=O)O)C(=O)N[C@@H](Cc1ccccc1)C(=O)N[C@H](C(=O)N[C@@H](CCC(=O)O)C(=O)N[C@@H](Cc1ccc(O)cc1)C(=O)N[C@@H](CC(C)C)C(=O)N[C@H](C(=O)N[C@@H](CCC(=O)O)C(=O)NCC(=O)NCC(N)=O)[C@@H](C)CC)[C@@H](C)CC [Example 94] (H-Y[Aib]EGT[αMeF]TSDYSILLDKIAQ[Aib]K([AEEA-AEEA-γGlu-C20 diacid])FIEYLIEGG-NH2)
1.01 | 1.17 | CC[C@H](C)[C@H](NC(=O)[C@H](CCCCN)NC(=O)[C@H](CC(=O)O)NC(=O)[C@H](CC(C)C)NC(=O)[C@H](CC(C)C)NC(=O)[C@@H](NC(=O)[C@H](CO)NC(=O)[C@H](Cc1ccc(O)cc1)NC(=O)[C@H](CC(=O)O)NC(=O)[C@H](CO)NC(=O)[C@@H](NC(=O)[C@](C)(Cc1ccccc1)NC(=O)[C@@H](NC(=O)CNC(=O)[C@H](CCC(=O)O)NC(=O)C(C)(C)NC(=O)[C@@H](N)Cc1ccc(O)cc1)[C@@H](C)O)[C@@H](C)O)[C@@H](C)CC)C(=O)N[C@@H](C)C(=O)N[C@@H](CCC(N)=O)C(=O)NC(C)(C)C(=O)N[C@@H](C)C(=O)N[C@@H](Cc1ccccc1)C(=O)N[C@H](C(=O)N[C@@H](CCC(=O)O)C(=O)N[C@@H](Cc1ccc(O)cc1)C(=O)N[C@@H](CC(C)C)C(=O)N[C@H](C(=O)N[C@@H](CCCCNC(=O)COCCOCCNC(=O)COCCOCCNC(=O)CC[C@H](NC(=O)CCCCCCCCCCCCCCCCCCC(=O)O)C(=O)O)C(=O)NCC(=O)NCC(N)=O)[C@@H](C)CC)[C@@H](C)CC [Example 95] (H-Y[Aib]EGT[αMeF]TSDYSILLDKIAQ[Aib]AFIEYLIK([AEEA-AEEA-γGlu-C20 diacid])GG-NH2)
0.59 | 0.712 | CC[C@H](C)[C@H](NC(=O)[C@H](CCCCN)NC(=O)[C@H](CC(=O)O)NC(=O)[C@H](CC(C)C)NC(=O)[C@](C)(CC(C)C)NC(=O)[C@@H](NC(=O)[C@H](CO)NC(=O)[C@H](CCCCNC(=O)COCCOCCNC(=O)COCCOCCNC(=O)CC[C@H](NC(=O)CCCCCCCCCCCCCCCCCCC(=O)O)C(=O)O)NC(=O)[C@H](CC(=O)O)NC(=O)[C@H](CO)NC(=O)[C@@H](NC(=O)[C@H](Cc1ccccc1)NC(=O)[C@@H](NC(=O)CNC(=O)[C@H](CCC(=O)O)NC(=O)C(C)(C)NC(=O)[C@@H](N)Cc1ccc(O)cc1)[C@@H](C)O)[C@@H](C)O)[C@@H](C)CC)C(=O)N[C@@H](C)C(=O)N[C@@H](CCC(N)=O)C(=O)NC(C)(C)C(=O)N[C@@H](C)C(=O)N[C@@H](Cc1ccccc1)C(=O)N[C@H](C(=O)N[C@@H](CCC(=O)O)C(=O)N[C@@H](Cc1ccc(O)cc1)C(=O)N[C@@H](CC(C)C)C(=O)N[C@H](C(=O)N[C@@H](CCC(=O)O)C(=O)NCC(=O)NCC(N)=O)[C@@H](C)CC)[C@@H](C)CC [Example 96] (H-Y[Aib]EGTFTSDK([AEEA-AEEA-γGlu-C20 diacid])SI[αMeL]LDKIAQ[Aib]AFIEYLIEGG-NH2)
2.18 | 1.85 | CC[C@H](C)[C@H](NC(=O)[C@H](CCCCN)NC(=O)[C@H](CC(=O)O)NC(=O)[C@H](CC(C)C)NC(=O)[C@](C)(CC(C)C)NC(=O)[C@@H](NC(=O)[C@H](CO)NC(=O)[C@H](Cc1ccc(O)cc1)NC(=O)[C@H](CC(=O)O)NC(=O)[C@H](CO)NC(=O)[C@@H](NC(=O)[C@H](Cc1ccccc1)NC(=O)[C@@H](NC(=O)CNC(=O)[C@H](CCC(=O)O)NC(=O)C(C)(C)NC(=O)[C@@H](N)Cc1ccc(O)cc1)[C@@H](C)O)[C@@H](C)O)[C@@H](C)CC)C(=O)N[C@@H](C)C(=O)N[C@@H](CCC(N)=O)C(=O)NC(C)(C)C(=O)N[C@@H](C)C(=O)N[C@@H](Cc1ccccc1)C(=O)N[C@H](C(=O)N[C@@H](CCC(=O)O)C(=O)N[C@@H](Cc1ccc(O)cc1)C(=O)N[C@@H](CC(C)C)C(=O)N[C@H](C(=O)N[C@@H](CCCCNC(=O)COCCOCCNC(=O)COCCOCCNC(=O)CC[C@H](NC(=O)CCCCCCCCCCCCCCCCCCC(=O)O)C(=O)O)C(=O)NCC(=O)NCC(N)=O)[C@@H](C)CC)[C@@H](C)CC [Example 97] (H-Y[Aib]EGTFTSDYSI[αMeL]LDKIAQ[Aib]AFIEYLIK([AEEA-AEEA-γGlu-C20 diacid])GG-NH2)
